Data on 44 molecules can be found in the Deep4Chem optical property database.

Each structure is given as a SMILES string.

The data set can be described thus: solvent given as SMILES.

`CCN(CC)c1ccc(/C=C2\CC/C(=C\c3ccc(N(c4ccc(/C=C5\CC/C(=C\c6ccc(N(CC)CC)cc6)C5=C(C#N)C#N)cc4)c4ccc(/C=C5\CC/C(=C\c6ccc(N(CC)CC)cc6)C5=C(C#N)C#N)cc4)cc3)C2=C(C#N)C#N)cc1` came in with an emission maximum (in CN(C)C=O) of 720 nm.
The molecule `c1ccc(N(c2ccccc2)c2ccc(-c3cccc4nc5ccccc5cc34)cc2)cc1` yielded an emission maximum (in C1CCOC1) of 535 nm; an emission maximum (in CC#N) of 572 nm; an emission maximum (in CC(C)OC(C)C) of 496 nm; an emission maximum (in CCCCCC) of 462 nm; an emission maximum (in CCCCOCCCC) of 491 nm; an emission maximum (in CCN(CC)CC) of 479 nm. The emission maximum reads like this: (in CCOC(C)=O) 532 nm; (in CCOCC) 507 nm; (in CN(C)C=O) 566 nm; (in ClCCl) 555 nm.
The molecule `CC1=CC(C)=[N+]2C1=C(c1ccc(I)cc1)c1c(C)cc(C)n1[B-]2(Oc1ccc([N+](=O)[O-])cc1)Oc1ccc([N+](=O)[O-])cc1` displayed an emission maximum (in ClC(Cl)Cl) of 516.5 nm.
Molecule `Fc1nc(F)c(F)c(C#Cc2nccnc2C#Cc2c(F)c(F)nc(F)c2F)c1F` came in with an emission maximum (in CC#N) of 440 nm.
For `c1ccc(-c2nc(-c3ccccc3)nc(-c3cc(-n4c5ccccc5c5ccccc54)cc(-n4c5ccccc5c5ccccc54)c3)n2)cc1`, the emission maximum runs as follows: (in C1CCCCC1) 409.39 nm; (in C1CCOC1) 546.94 nm; (in Cc1ccccc1) 475.1 nm.
`N#Cc1c(-n2c3ccccc3c3ccccc32)c(-n2c3ccccc3c3ccccc32)cc(-n2c3ccccc3c3ccccc32)c1-n1c2ccccc2c2ccccc21`: the emission maximum is 439.08 nm (in CCCCCC), 468.52 nm (in CCO), 442 nm (in Cc1ccccc1) and 456.64 nm (in ClCCl).
Consider `CC1=C(c2ccccc2)C(C)=[N+]2C1=C(c1c(-c3ccccn3)nc3ccccn13)c1c(C)cc(C)n1[B-]2(F)F`, for which the emission maximum (in ClCCl) stood at 566 nm.
The same measure, in the same setting: for `CC(C)(C)c1ccc2c(c1)-c1c3c(c4c5c1-c1cc(C(C)(C)C)ccc1OB5Oc1ccc(C(C)(C)C)cc1-4)-c1cc(C(C)(C)C)ccc1OB3O2` the value was 436 nm.
The same measure, in the same setting: for `O=[N+]([O-])c1ccc([N+]2=CC3=C(O[B-]2(F)F)c2ccccc2SC3)cc1` the value was 575 nm; for `COc1ccc(-c2ccc(/C=C/c3ccncn3)cc2)cc1`, 447 nm; for `C(=C\c1cnccn1)/c1ccc(N(c2ccccc2)c2ccc(/C=C/c3cnccn3)cc2)cc1`, 569 nm.
Under “in ClC(Cl)Cl”, `COc1cc2cc(C#N)c3ccc4ccccc4c3c2cc1OC` registered an emission maximum of 399 nm.
For `COc1ccc(C2=C(c3ccc([N+](=O)[O-])cc3)C(c3ccccc3)=[N+]3C2=Nc2c(-c4ccc(OC)cc4)c(-c4ccc([N+](=O)[O-])cc4)c(-c4ccccc4)n2[B-]3(F)F)cc1`, the emission maximum (in Cc1ccccc1) amounted to 688 nm.
In turn, `CCOC(=O)c1ccc(C2CC(c3cccc4ccccc34)=NN2c2ccc(OC)cc2)cc1` (stereo not drawn) showed an emission maximum (in ClCCl) of 505 nm.
As to `O=c1c(Nc2ccccc2)c([O-])c1=[NH+]c1ccccc1`, the emission maximum worked out at 477 nm (in C1CCOC1); 496 nm (in CC#N); 490 nm (in CC(C)=O); 492 nm (in CCO); 484 nm (in CCOCC); 495 nm (in CN1CCCC1=O). Moreover, the emission maximum is reported as 502 nm (in CN(C)C=O), 498 nm (in CO), 504 nm (in CS(C)=O) and 504 nm (in O).
Turning to `C(#Cc1ccccc1C#Cc1ccccc1)c1ccccc1`, under “in CC#N”, the emission maximum was determined as 360 nm.
Under “in Cc1ccccc1”, `COc1cc2c3c4c(c5ccc(C(C)(C)C)cc5c5cc(C(C)(C)C)cc(c2c(OC)c1OC)c45)=[N+]1C3=Nc2c3c4cc(OC)c(OC)c(OC)c4c4cc(C(C)(C)C)cc5c6cc(C(C)(C)C)ccc6c(c3c54)n2[B-]1(F)F` registered an emission maximum of 832 nm.
Under “in C1CCOC1”, `CC(C)(C)c1ccc(C2=C(c3ccc(C(C)(C)C)cc3)[Si](c3ccccc3)(c3ccccc3)c3ccccc32)cc1` showed an emission maximum of 447 nm.
`Cc1cc(C)c(B(c2c(C)cc(C)cc2C)N2c3ccccc3C3(c4ccccc4-c4ccccc43)c3ccccc32)c(C)c1`: the emission maximum reads like this: (in C1CCCCC1) 527 nm; (in Cc1ccccc1) 538 nm; (in ClCCl) 560 nm.
In turn, `C1=CC2=CC=CC3C=c4c(cc5cccc6cccc4c65)C(=C1)C23` (stereo not drawn) showed an emission maximum (in ClCCl) of 574 nm.
Turning to `O=S(=O)(/N=c1\oc2cccc3c4c(-c5ccccc5)oc5cccc(c(c1-c1ccccc1)c23)c54)C(F)(F)F`, the emission maximum came to 535 nm (in CCCCCC); 582 nm (in CO); 596 nm (in CS(C)=O); 558 nm (in ClC(Cl)Cl); 569 nm (in ClCCl); 601 nm (in O).
As for `CCN1c2ccc(-c3cc(C(F)(F)F)[nH]n3)cc2Sc2cc(-c3cc(C(F)(F)F)[nH]n3)ccc21`, the emission maximum is listed as 469 nm (in C1CCOC1); 469 nm (in CC#N); 464 nm (in CN(C)C=O); 467 nm (in ClCCl); 463 nm (in c1ccccc1).
As to `F[B-]1(F)n2c(-c3cccs3)cc(-c3ccccc3)c2N=C2C(c3ccccc3)=CC(c3cccs3)=[N+]21`, the emission maximum is listed as 732 nm (in CC#N) and 740 nm (in ClCCl).
Turning to `NS(=O)(=O)c1ccc(N2N=C(c3ccc(O)cc3)CC2c2ccc([N+](=O)[O-])cc2)cc1` (stereo not drawn), the emission maximum worked out at 420 nm (in C1CCOC1); 417 nm (in C1COCCO1); 419 nm (in CC#N); 421 nm (in CC(C)O); 422 nm (in CCO); 417 nm (in CCOC(C)=O). The emission maximum is, setting by setting: (in CN(C)C=O) 422 nm; (in CO) 434 nm; (in CS(C)=O) 425 nm; (in O) 451 nm.
Where the note is “in ClCCl”, `Cc1cccc(C)c1/C=C/c1nc(N2CCOCC2)c2c([n+]1[O-])CCCC2` registered an emission maximum of 536 nm.
For the setting “in ClC(Cl)Cl”, `CC(C)(C)c1ccc2c(c1)c1cc(C(C)(C)C)ccc1n2-c1ccc2oc3nc4oc5cc(C(F)(F)F)ccc5c4cc3c2c1` yielded an emission maximum of 466 nm.
`Cc1c(C(=O)c2ccccc2Cl)c2ccc3cccc4c5cccc6ccc1c(c65)c2c34`: the emission maximum (in ClCCl) amounted to 482 nm.
As for `N#Cc1c(-n2c3ccccc3c3ccccc32)cccc1-n1c2ccccc2c2ccccc21`, the emission maximum was 403 nm (in Cc1ccccc1) and 415 nm (in O=P(c1ccccc1)(c1ccccc1)c1ccccc1Oc1ccccc1P(=O)(c1ccccc1)c1ccccc1).
The molecule `CCN1/C(=C\C2=C([O-])C(=C/C3=[N+](CC)c4ccccc4C3(C)C)/C2=O)C(C)(C)c2ccccc21` registered an emission maximum (in ClC(Cl)Cl) of 643 nm.
For `FP(F)(c1c2ccccc2cc2ccccc12)(c1c2ccccc2cc2ccccc12)c1c2ccccc2cc2ccccc12`, the emission maximum (in C1CCOC1) amounted to 410 nm.
In the case of `CC1=CC(C)=[N+]2C1=C(c1ccc3cccnc3n1)c1c(C)cc(C)n1[B-]2(F)F`, the emission maximum was 516 nm (in CC#N); 524 nm (in CCCCCC); 521 nm (in CO); 527 nm (in ClC(Cl)Cl); 522 nm (in ClCCl).
As for `O=C1c2ccccc2-c2cc3ccccc3c(=O)n21`, the emission maximum was 443 nm (in CC#N), 445 nm (in CO), 455 nm (in CS(C)=O) and 445 nm (in ClC(Cl)Cl).
Turning to `CCCCCCCCCCOc1cc(OCCCCCCCCCC)cc(C2=C3C(/C=C/c4ccc(N(C)C)cc4)=C(C#Cc4ccc(C(C)(C)C)cc4)C(/C=C/c4ccc(N(C)C)cc4)=[N+]3[B-](F)(F)n3c(/C=C/c4ccc(N(C)C)cc4)c(C#Cc4ccc(C(C)(C)C)cc4)c(/C=C/c4ccc(N(C)C)cc4)c32)c1`, the emission maximum (in ClC(Cl)Cl) was 835 nm.
Consider `O=C1c2cc3ccccc3cc2C2=Nc3cccc[n+]3[B-](F)(F)N12`, for which the emission maximum (in ClCCl) is recorded as 414 nm.
For `CN(C)c1ccccc1`, the emission maximum (in C1CCCCC1) stood at 339.9 nm.
For the molecule `CN(C)c1ccc(-c2ccc3n2[B-](F)(F)[N+]2=C(c4ccccc4)C=CC2=C3C(F)(F)F)cc1`, the emission maximum was found to be 756 nm (in C1COCCO1); 772 nm (in CC#N); 696 nm (in CCCCCC); 745 nm (in CCCCO); 728 nm (in CCCCOCCCC); 750 nm (in CCO). Further, the emission maximum stood at 755 nm (in CCOC(C)=O), 800 nm (in CS(C)=O), 746 nm (in Cc1ccccc1) and 712 nm (in ClC(Cl)(Cl)Cl).
The molecule `CCCCN(CCCC)c1ccc(/C=C/c2ccc3c(c2)CCc2cc(/C=C/c4ccc(N(CCCC)CCCC)cc4)ccc2-3)cc1` returned an emission maximum (in CS(C)=O) of 536.5 nm and an emission maximum (in Cc1ccccc1) of 456.4 nm.
With `Cc1ccccc1-c1c2ccc(=[N+]3CCN(C(=O)OC(C)(C)C)CC3)cc-2oc2cc(N3CCN(C(=O)OC(C)(C)C)CC3)ccc12`, the emission maximum reads like this: (in CCO) 580 nm; (in ClCCl) 577 nm.
Take `CC(=O)Nc1cccc2c1C#Cc1c(cccc1C(=O)N(C)C)OCCCO2`: the emission maximum reads like this: (in CC#N) 394 nm; (in ClCCl) 390 nm.
Turning to `c1ccc(N(c2ccccc2)c2ccc(-n3ccc4cc(-c5cccc6c5-c5ccccc5C6(c5ccccc5)c5ccccc5)ccc43)cc2)cc1`, where the note is “in ClCCl”, the emission maximum stood at 381 nm.
Where the note is “in Cc1ccccc1”, `C(#Cc1ccc2ncsc2c1)c1ccc(N(c2ccccc2)c2ccccc2)cc1` came in with an emission maximum of 428 nm.
Where the note is “in Cc1ccccc1”, `N#CC(C#N)=Cc1nc2ccc(C#Cc3ccc(N(c4ccccc4)c4ccccc4)cc3)cc2s1` returned an emission maximum of 617 nm.
`c1ccc2cc3c4c(ccc3cc2c1)-c1cccc2cccc-4c12` registered an emission maximum (in CCCCCCC) of 520 nm.
With `O=c1c2cccc3cccc(c32)c2nc3c4ccccc4c4ccccc4c3n12`, the emission maximum (in ClCCl) came out at 589 nm.
